From publication PMC9380551 (Antimicrobial Agents and Chemotherapy, 2022)

Test system: SARS-CoV-2 Wuhan reference strain
Format: cell-based

SMILES	comparative efficiency in inhibiting SARS-CoV-2 replication
CCC(CC)COC(=O)[C@H](C)N[P@](=O)(OC[C@H]1O[C@@](C#N)(c2ccc3c(N)ncnn23)[C@H](O)[C@@H]1O)Oc1ccccc1 [remdesivir]	the most efficient molecule
CC(C)c1nc(CN(C)C(=O)N[C@H](C(=O)N[C@@H](Cc2ccccc2)C[C@H](O)[C@H](Cc2ccccc2)NC(=O)OCc2cncs2)C(C)C)cs1 [ritonavir]	AB-00011778 was more efficient than the ritonavir molecule
